What was measured:
HT-29 cells = assay: Antiproliferative assay, HT-29; type: cell-based; conditions: Homo sapiens; HT-29 colon cancer cell line; read-out: Antiproliferative activity IC50 ± SEM, HT-29
Experimental: (§1) 4.2.2. Assay for antiproliferative effect
(§2) To explore the antiproliferative potential of compounds propidium iodide fluorescence assay was performed using different cell lines such as Panc-1 (pancreas cancer cell line), MCF-7 (breast cancer cell line), HT-29 (colon cancer cell line) and A-549 (epithelial cancer cell line), respectively. To calculate the total nuclear DNA, a fluorescent dye (propidium iodide, PI) is used which can attach to the DNA, thus offering a quick and precise technique. PI cannot pass through the cell membrane and its signal intensity can be considered as directly proportional to quantity of cellular DNA. Cells whose cell membranes are damaged or have changed permeability are counted as dead ones. The assay was performed by seeding the cells of different cell lines at a density of 3000-7500 cells/well (in200μl medium) in culture plates followed by incubation for 24h at 37 °C in humidified 5%CO2/95% air atmospheric conditions. The medium was removed; the compounds were added to the plates at 10 μM concentrations (in 0.1% DMSO) in triplicates, followed by incubation for 48h. DMSO (0.1%) was used as control. After incubation, medium was removed followed by the addition of PI (25 μl, 50μg/mL in water/medium) to each well of the plates. At - 80 °C, the plates were allowed to freeze for 24 h, followed by thawing at 25 °C. A fluorometer (Polar-Star BMG Tech) was used to record the readings at excitation and emission wavelengths of 530 and 620 nm for each well. The percentage cytotoxicity of compounds was calculated using […]
(§3) Where ATC= Absorbance of treated cells and AC= Absorbance of control. Erlotinib was used as positive control in the assay.

MCF-7 cells = assay: Antiproliferative assay, MCF-7; type: cell-based; conditions: Homo sapiens, MCF7; MCF-7 breast cancer cell line; read-out: Antiproliferative activity IC50 ± SEM, MCF-7
Experimental: as §1, §2, §3

aromatase (CYP19) = biological target: T1, aromatase (CYP19) (Homo sapiens, UniProt P11511); assay: Aromatase inhibitory assay (Gentest kit, DBF fluorometric substrate)
T1 sequence (P11511 1-503): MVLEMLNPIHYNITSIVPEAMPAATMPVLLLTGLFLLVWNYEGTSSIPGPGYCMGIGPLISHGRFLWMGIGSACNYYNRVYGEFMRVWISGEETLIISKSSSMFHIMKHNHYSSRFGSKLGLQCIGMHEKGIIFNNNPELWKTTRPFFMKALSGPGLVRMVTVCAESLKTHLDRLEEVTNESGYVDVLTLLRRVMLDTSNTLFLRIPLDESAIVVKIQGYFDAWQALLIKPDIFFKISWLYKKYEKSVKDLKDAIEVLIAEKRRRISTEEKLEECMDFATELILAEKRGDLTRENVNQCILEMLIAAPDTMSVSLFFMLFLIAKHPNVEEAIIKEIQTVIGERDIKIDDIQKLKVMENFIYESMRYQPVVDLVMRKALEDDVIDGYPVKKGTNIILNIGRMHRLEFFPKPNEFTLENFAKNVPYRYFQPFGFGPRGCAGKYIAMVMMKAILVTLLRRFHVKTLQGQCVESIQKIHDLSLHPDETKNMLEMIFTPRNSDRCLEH
Experimental: The aromatase inhibitory effect was performed using the method reported by Stressor et al.[35].
This method was carried out according to the Gentest kit using CYP19 enzyme and DBF as a
fluorometric substrate. DBF was dealkylated by aromatase and then hydrolyzed to give the
fluorescein product. Briefly, 100 μL of cofactor, containing 78.4 μL of 50 mM phosphate buffer
(pH 7.4); 20 μL of 20x NADPH-generating system (26 mM NADP+, 66 mM glucose-6-phosphate,
and 66 mM MgCl2); and 1.6 μL of 100 U/mL glucose-6-phosphate dehydrogenase, was pipetted
into a 96-well plate and preincubated in 37 °C (water bath) for 10 min. The reaction was initiated
by addition of 100 μL of enzyme/substrate mixture containing 77.3 μL of 50 mM
phosphate buffer (pH 7.4); 12.5 μL of 16 pmol/mL CYP19; 0.2 μL of 0.2 mM DBF, and 10 μL of
0.25 mM diluted tested sample or 10% DMSO as a negative control or letrozole as a positive
control. Fluorescence signal was recorded using an excitation wavelength of 490 nm and emission
Percentage of inhibition (%inhibition) was calculated
as shown in Equation (1).
assayed in triplicate. Finally, IC50 values were determined by plot of concentrations versus %

Panc-1 cells = assay: Antiproliferative assay, Panc-1; type: cell-based; conditions: Homo sapiens; Panc-1 pancreatic cancer cell line; read-out: Antiproliferative activity IC50 ± SEM, Panc-1
Experimental: as §1, §2, §3

iNOS = biological target: T2, iNOS (Homo sapiens, UniProt P35228); assay: NOS inhibition assay (L-citrulline, fluorometric detection), iNOS; type: biochemical; conditions: for inhibition at 1 µM: compound at 1 µM; for eNOS/iNOS selectivity: ratio of eNOS IC50 to iNOS IC50
T2 construct: purchased Enzo Life Sciences, Inc. (New York, USA)
Experimental: (§4) The investigated compounds were tested at 1 µM against the iNOS and 10 µM against the eNOS to determine their isoform selectivity. Because of its critical role in cardiovasculature, inhibiting the constitutive enzyme eNOS should be avoided.
(§5) Refer to Supplementary Appendix SA1 for more details.
(§6) 4.2.4. NOS inhibition assay
(§7) Recombinant human iNOS was purchased from Enzo Life Sciences, Inc. (New York, USA).
(§8) Recombinant bovine eNOS was purchased from Cayman Chemical (Ann Arbor, USA). To measure iNOS activity, 10 μL of enzyme stock solution were added to 80 μL of 2-[4-(2-hydroxyethyl) piperazin-1-yl]ethanesulfonic acid (HEPES) buffer pH = 7.4, 100 mM, containing 0.1 mM CaCl2, 1 mM D,L-dithiothreitol (DTT), 0.5 mg/mL BSA, 10 μM flavin mononucleotide (FMN), 10 μM flavin adenine dinucleotide (FAD), 30 μM tetrahydrobiopterin (BH4), 10 μg/mL calmodulin (CaM), 10 μM L-Arg. For the eNOS activity evaluation, 25 μL of the enzyme stock solution were added to 65 μL of HEPES buffer containing 2 mM CaCl2 and the same cofactors […]
(§9) μM) were added to the enzyme assay solution, followed by pre -incubation of 15 min at 37 ◦C.
(§10) Each reaction was initiated by the addition of 10 μL of NADPH 7.5 mM, carried out at 37 ◦C for 30 min, and stopped by adding 500 μL of ice -cold CH3CN. The mixture was brought to dryness under vacuum and eventually stored at – 20 ◦C, before the HPLC analysis. […]

[1] = tested on: four human cancer cell lines (A-549, MCF-7, Panc-1, HT-29); assay: Antiproliferative assay, average over four cancer cell lines (GI50); type: cell-based; conditions: for IC50: average of IC50 against A-549, MCF-7, Panc-1, HT-29
Experimental: See Supplementary Appendix SA1 for more details.
as §1
To explore the antiproliferative potential of compounds propidium iodide fluorescence assay was performed using different cell lines such as Panc-1 (pancreas cancer cell line), MCF-7 (breast […]
respectively. To calculate the total nuclear DNA, a fluorescent dye (propidium iodide, PI) is used which can attach to the DNA, thus offering a quick and precise technique. PI cannot pass through the cell membrane and its signal intensity can be considered as directly proportional to quantity of cellular DNA. Cells whose cell membranes are damaged or have changed permeability are counted as dead ones. The assay was performed by seeding the cells of different cell lines at a density of […]
The medium was removed; the compounds were added to the plates at 10 μM concentrations (in 0.1% DMSO) in triplicates, followed by incubation for 48h. DMSO (0.1%) was used as control. After incubation, medium was removed followed by the addition of PI (25 μl, 50μg/mL in water/medium) to each well of the plates. At - 80 °C, the plates were allowed to freeze for 24 h, followed by thawing at 25 °C. A fluorometer (Polar-Star BMG Tech) was used to record the readings at excitation and emission wavelengths of 530 and 620 nm for each well. The percentage cytotoxicity of compounds was calculated using […]
Where ATC= Absorbance of treated cells and AC= Absorbance of control. […]
positive control in the assay.

eNOS = biological target: T3, eNOS (Bos taurus, UniProt P29473); assay: NOS inhibition assay (L-citrulline, fluorometric detection), eNOS; type: biochemical, bovine; conditions: for inhibition at 10 µM / Inhibition (%) eNOS: compound at 10 µM
T3 construct: purchased Cayman Chemical (Ann Arbor, USA)
Experimental: as §4, §5, §6, §7, §8, §9, §10

Row | SMILES | IC50 (HT-29 cells) [nM] | IC50 (MCF-7 cells) [nM] | IC50 (aromatase (CYP19)) [nM] | IC50 (Panc-1 cells) [nM] | inhibition at 1 µM (iNOS) [%] | IC50 ([1]; Homo sapiens) [nM] | inhibition at 10 µM (eNOS) [%] | Fold more effective than compound 11 (GI50) [1] | Inhibition (%) eNOS (eNOS) | Fold less potent than Letrozole (aromatase IC50) (aromatase (CYP19)) [fold] | Fold more potent than Ketoconazole (aromatase IC50) (aromatase (CYP19)) | IC50 (iNOS) [nM] | eNOS/iNOS selectivity (iNOS) | Fold potency relative to Erlotinib (GI50) ([1]; GI50 24 nM vs Erlotinib […] nM) [fold] | IC50 [1] [nM] | IC50 (eNOS) [nM] | IC50 eNOS (eNOS)
1 | CCc1c2cc(Cl)ccc2n2c(C)c(C(=O)OCc3ccccc3)[nH]c(=O)c12 [Compound 5, benzyl 8-chloro-10-ethyl-4-methyl-1-oxo-1,2-dihydropyrazino [1,2-a]indole-3-carboxylate] | 32 ± 3 | 34 ± 3 | 20 ± 2 | 32 ± 3 | 62 ± 2 | 32 | 49 ± 2 |  |  |  |  |  |  |  |  |  | 
2 | CCc1c2cc(Cl)ccc2n2c(C)c(C(=O)NCc3ccccc3)[nH]c(=O)c12 [Compound 7, N-benzyl-8-chloro-10-ethyl-4-methyl-1-oxo-1,2-dihydropyrazino [1,2-a]indole-3-carboxamide] | 29 ± 2 | 30 ± 3 | 15 ± 1 | 28 ± 2 | 73 ± 2 | 29 | 32 ± 2 | at least 1.4 fold | moderate inhibitory action |  |  |  |  |  |  |  | 
3 | CCc1c2cc(Cl)ccc2n2cc(Cc3ccccc3)n(C)c(=O)c12 [Compound 12, 3-Benzyl-8-chloro-10-ethyl-2-methylpyrazino[1,2-a]indol-1(2H)-one] | 25 ± 2 | 25 ± 2 | 10 ± 1 | 24 ± 2 | 87 ± 3 | 25 |  |  | completely inactive | 5 | at least 10 fold | 75 ± 2 | >670 | 1.4 | 24 | > 50000 | 
4 | CCc1c2cc(Cl)ccc2n2cc(-c3ccccc3)[nH]c(=O)c12 [Compound 16, 8-Chloro-10-ethyl-3-phenylpyrazino [1,2-a]indol-1(2H)-one] | 25 ± 2 | 28 ± 2 | 12 ± 1 | 25 ± 2 | 81 ± 3 | 28 |  | at least 1.4 fold | completely inactive |  |  | 98 ± 3 | >510 |  | 26 | > 50000 | inactive

Reference: paper PMC11414412, “Design and synthesis new indole-based aromatase/iNOS inhibitors with apoptotic antiproliferative activity” (Frontiers in Chemistry, 2024)
